21 compounds from patent US10695325B2, “Compounds and methods for treating an epileptic disorder” (priority 2013, dated 2020) can be followed below.

The subject of one data set is scMET model. In words: scMET model. The data set is classed as in vivo, mice. The settings on record: for N/F (animals protected over tested): IP quantification, 0.5 h.
For the next data set, the system named is 6 Hz (32 mA) model. The experiment in a line: 6 Hz (32 mA) model. The data set is classed as in vivo, mice. The conditions noted are these: identification screen IP. The protocol: ASP469016 was tested in our initial T31 (MES/scMET/Tox) screen at 30, 100, and 300 mg/kg. The data for each condition is presented as N/F, where N equals the number of animals protected and F equals the number of animals tested. For tests of toxicity (TOX), N equals the number of animals displaying toxic effects and F equals the number of animals tested. Codes in the C column refer to comments from the technicians performing the experiment and are defined in the comments section if necessary. Any deaths are noted. As shown in the 6 Hz (32 mA) model only 1/4 animals were protected at 100 mg/kg at 30 min. In the MES-induced seizure model only 1/4 animals were protected at 100 and 300 mg/kg at 30 min. No toxicity (unable to grasp rotorod) or activity was detected at any other dose or time point tested.

The next data set relates to mice. The settings on record: mouse, in vivo.
Data set [1] concerns MES-induced seizure model. The experiment in a line: MES-induced seizure model. Format: in vivo, mice. The conditions noted are these: for ED50, MES: mice IP, 0.5 hrs.
The test system of data set [2] is scn1Lab mutant zebrafish. The data set is classed as in vivo, Danio rerio (zebrafish). The conditions noted are these: for inhibition of spontaneous seizure behavior, initial screen: 667 μM; for swim activity / seizure behavior, third trial: 100 μM.
The next data set relates to wild-type larvae. The experiment in a line: DMSO toxicity in larvae. The conditions noted are these: dilutions between 0.01 and 100%; n=12 fish per concentration.
In data set [3] the test system is scn1Lab mutant zebrafish. Format: in vivo, Danio rerio (zebrafish). The conditions noted are these: for forebrain electrographic seizure activity after the locomotion assay: 100 μM.
The subject of data set [4] is WT zebrafish exposed to 15 mM pentylenetetrazole. In words: PTZ-induced seizure behavior, locomotion assay. Format: in vivo. The conditions noted are these: 100 μM, n=10.
The mark [5] stands for this setting: 1 mM (KD: 48 hr exposure), 5 dpf.

Counter-ions that a name gives are not always drawn. Like-named read-outs stand apart in the source and are kept apart here. A value given as a limit tells only on which side of the number the result lay.

Turning to `Clc1ccc(Cn2c(CN3CCCC3)nc3ccccc32)cc1` [ASP469016], the “N/F (animals protected over tested)” value in the data set on scMET model (200 mg/kg) was 0/8; in the data set on scMET model (250 mg/kg) it was 0/4; in the data set on 6 Hz (32 mA) model (30 mg/kg, 0.5 h), 0/4; in the data set on 6 Hz (32 mA) model (30 mg/kg, 2.0 h), 0/4; in the data set with 6 Hz (32 mA) model (100 mg/kg, 0.5 h) it was 1/4; in the data set with 6 Hz (32 mA) model (100 mg/kg, 2.0 h), 0/4. Also, the “N/F (animals protected over tested)” value in the data set with 6 Hz (32 mA) model (300 mg/kg, 0.5 h) is listed as 0/4; in the data set on 6 Hz (32 mA) model (300 mg/kg, 2.0 h), 0/4; in data set [1] (IP quantification, 350 mg/kg, 0.5 h) it was 0/8; in data set [1] (IP quantification, 400 mg/kg, 0.5 h), 7/8; in data set [1] (IP quantification, 500 mg/kg, 0.5 h), 4/4; in data set [1] (identification screen IP, 30 mg/kg, 0.5 h), 0/4. In addition, the “N/F (animals protected over tested)” value is on record as 0/4 in data set [1] (identification screen IP, 30 mg/kg, 2.0 h); 1/4 in data set [1] (identification screen IP, 100 mg/kg, 0.5 h); 0/4 in data set [1] (identification screen IP, 100 mg/kg, 2.0 h); 1/4 in data set [1] (identification screen IP, 300 mg/kg, 0.5 h); 0/4 in data set [1] (identification screen IP, 300 mg/kg, 2.0 h); 0/4 in data set [1] (time to peak effect, 300 mg/kg, 0.25 h). Also, the “N/F (animals protected over tested)” value was 0/4 in data set [1] (time to peak effect, 300 mg/kg, 0.5 h); 0/4 in data set [1] (time to peak effect, 300 mg/kg, 1.0 h); 0/4 in data set [1] (time to peak effect, 300 mg/kg, 2.0 h); 0/4 in data set [1] (time to peak effect, 300 mg/kg, 4.0 h); 2/4 in data set [1] (time to peak effect, 500 mg/kg, 0.25 h); 0/4 in data set [1] (time to peak effect, 500 mg/kg, 1.0 h). The “N/F (animals protected over tested)” value in data set [1] (time to peak effect, 500 mg/kg, 2.0 h) is 0/4; in data set [1] (time to peak effect, 500 mg/kg, 4.0 h), 0/4. Moreover, the “ED50, SCMET” value with scMET model (mice IP, 0.5 hrs) was above 250.0 mg/kg. Moreover, the “activity in the scMET model” value in the data set on scMET model (quantitative testing) is listed as “No activity”. Besides, the “activity or toxicity (unable to grasp rotorod)” value with mice is given as “No activity or toxicity”. The “N/F (animals toxic over tested)” value is 0/8 in the data set with mice (400 mg/kg); 0/4 in the data set on mice (500 mg/kg); 0/8 in the data set on mice (ip, 30 mg/kg); 0/8 with mice (ip, 100 mg/kg); 0/8 in the data set on mice (ip, 300 mg/kg); 0/4 in the data set with mice (ip, 500 mg/kg). The “ED50, TOX” value in the data set with mice (ip) is reported as above 500 mg/kg. Besides, the “activity during determination of the TPE in the MES model” value in data set [1] (300 mg/kg starting dose) was “no activity”. In data set [1] (100 and 300 mg/kg doses), the “activity in the qualitative MES screen” value is recorded as “some activity”. The “ED50, MES” value in data set [1] is listed as below 400 mg/kg; in data set [1] (listed as 469016), below 400.0 mg/kg.

With `CC(=O)Nc1nnc(S(N)(=O)=O)s1` [Acetazolamide], the “effect on locomotor seizure behavior” value with scn1Lab mutant zebrafish [2] (zebrafish, in vivo) is on record as “increased seizure behavior”.

Regarding `C[S+](C)[O-]` [DMSO], the “lethal DMSO dilution” value in the data set with wild-type larvae is above 25%.

Consider `NCC(O)CC(=O)O` (centres unmarked) [aminohydroxybutyric acid], for which the “inhibition of spontaneous seizure behavior, initial screen” value (“inhibition” for short) in the data set on scn1Lab mutant zebrafish [2] (5 dpf, 6-12 fish) is “ineffective”.

As for `O=C(CCCl)NCc1ccccc1` [beclamide], in the data set with scn1Lab mutant zebrafish [2], the “inhibition” value is recorded as “ineffective”.

`NC(=O)N1c2ccccc2C=Cc2ccccc21` [carbamazepine]: in the data set on scn1Lab mutant zebrafish [3] (zebrafish, in vivo), the “Epileptiform event frequency (burst frequency; interictal- and ictal-like discharges)” value (shortened to “Epileptiform event frequency”) is recorded as “increased burst frequency”; the “fish in which epileptiform activity became more frequent” value (“fish” below) is recorded as 2 of 7.

`Clc1ccc(Cn2c(CN3CCCC3)nc3ccccc32)cc1` [clemizole]: in data set [4], the PTZ-induced seizure behavior result is listed as “effective in reducing seizure behavior”. For the same compound, the “forebrain electrographic seizure activity after the locomotion assay” value with scn1Lab mutant zebrafish [3] is “effective in suppressing spontaneous seizure activity”. Also, in the data set with scn1Lab mutant zebrafish [3] (n=7), the burst duration turned out to be 154 ± 127 ms, the burst frequency is recorded as 0.2±0.01 bursts/min and the “fractional time spent seizing” value came to 0.03±0.02%. In the data set with scn1Lab mutant zebrafish [2], the “swim activity / seizure behavior, third trial” value was “effective in suppressing spontaneous seizure activity”. Further, in the data set with scn1Lab mutant zebrafish [2] (n=33), the “seizure behavior in the locomotion assay” value is recorded as “no significant effect”. Besides, the “seizure-induced swim activity and mean velocity, re-test” value in the data set with scn1Lab mutant zebrafish [2] (zebrafish, in vivo) was “effective in reducing seizure-induced swim activity and mean velocity”.

Regarding `C#CCN(C)CCCOc1ccc(Cl)cc1Cl` [clorgiline HCl], the “forebrain electrographic seizure activity after the locomotion assay” value in the data set with scn1Lab mutant zebrafish [3] is “electrographic seizure events were still observed”. Besides, in the data set on scn1Lab mutant zebrafish [2], the “swim activity / seizure behavior, third trial” value is given as “reduced swim activity”. In the data set with scn1Lab mutant zebrafish [2] (zebrafish, in vivo), the “seizure-induced swim activity and mean velocity, re-test” value is “effective in reducing seizure-induced swim activity and mean velocity”.

For the compound `CN1C(=O)CN=C(c2ccccc2)c2cc(Cl)ccc21` [diazepam], the “fractional time spent seizing” value in the data set with scn1Lab mutant zebrafish [3] (1 mM bath applied, 5-6 dpf, vs baseline) is “reduced”. The “Epileptiform event frequency” value in the data set with scn1Lab mutant zebrafish [3] (1 mM bath applied, agar-embedded mutants 5-6 dpf, vs baseline, 7 fish per drug) was “reduced”. Besides, the “effect on locomotor seizure behavior” value in the data set on scn1Lab mutant zebrafish [2] (setting [5]) was “effectively inhibited seizure behavior”.

Regarding `CCC1(C)CC(=O)NC1=O` (centres unmarked) [ethosuximide], the “fish” value in the data set with scn1Lab mutant zebrafish [3] (zebrafish, in vivo) is reported as 4 of 7. The “effect on locomotor seizure behavior” value in the data set with scn1Lab mutant zebrafish [2] (zebrafish, in vivo) is “increased seizure behavior”.

As to `CC(=O)[C@H]1CC[C@H]2[C@@H]3CC[C@H]4C[C@](C)(O)CC[C@]4(C)[C@H]3CC[C@]12C` [ganaxolone], the “effect on locomotor seizure behavior” value in the data set with scn1Lab mutant zebrafish [2] (setting [5]) is “effective”.

For `CC(C)CCCC(C)NC(C)C` (centres unmarked) [iproheptine], the “convulsive behavior (H1 antihistamines)” value with scn1Lab mutant zebrafish [2] (locomotor seizure assay, 5 dpf) was “failed to suppress convulsive behavior”.

`Nc1nnc(-c2cccc(Cl)c2Cl)c(N)n1` [lamotrigine]: in the data set with scn1Lab mutant zebrafish [2] (zebrafish, in vivo), the “effect on locomotor seizure behavior” value was “no effect”.

With `CC[C@@H](C(N)=O)N1CCCC1=O` [levetiracetam], the “effect on locomotor seizure behavior” value in the data set on scn1Lab mutant zebrafish [2] (zebrafish, in vivo) is listed as “no effect”.

For `CN1CCc2c(c3ccccc3n2Cc2ccccc2)C1.CN1CCc2c(c3ccccc3n2Cc2ccccc2)C1.O=S(=O)(O)c1cccc2c(S(=O)(=O)O)cccc12` [mebhydrolin napthalenesulfonate], in the data set with scn1Lab mutant zebrafish [2] (zebrafish, in vivo), the “convulsive behavior (H1 antihistamines)” value is on record as “failed to suppress convulsive behavior”.

In the case of `CN1CCC(=C2c3ccccc3Sc3ccccc32)CC1` [pimethixene maleate], the “convulsive behavior (H1 antihistamines)” value in the data set on scn1Lab mutant zebrafish [2] (zebrafish, in vivo) was “failed to suppress convulsive behavior”.

Take `[Br-].[K+]` [potassium bromide]: in the data set with scn1Lab mutant zebrafish [3] (zebrafish, in vivo), the “Epileptiform event frequency” value is on record as “reduced”; the “fractional time spent seizing” value is reported as “reduced”. Moreover, the “effect on locomotor seizure behavior” value in the data set on scn1Lab mutant zebrafish [2] (zebrafish, in vivo) is recorded as “effectively inhibited seizure behavior”.

For `CC(C)(C)C(O)/C=C/c1ccc2c(c1)OCO2` (centres unmarked) [stiripentol], in the data set on scn1Lab mutant zebrafish [3] (zebrafish, in vivo), the “Epileptiform event frequency” value is on record as “reduced”; the “fractional time spent seizing” value is recorded as “reduced”. Moreover, the “effect on locomotor seizure behavior” value in the data set on scn1Lab mutant zebrafish [2] (zebrafish, in vivo) is “effectively inhibited seizure behavior”.

For the compound `CCNC1(c2cccs2)CCCCC1=O` (centres unmarked) [tiletamine], in the data set on scn1Lab mutant zebrafish [2] (5 dpf, 6-12 fish), the “inhibition” value is recorded as “ineffective”.

Regarding `Cc1ccc(C(=O)C(C)CN2CCCCC2)cc1` (centres unmarked) [tolperisone HCl], the “forebrain electrographic seizure activity after the locomotion assay” value with scn1Lab mutant zebrafish [3] is “electrographic seizure events were still observed”. Also, the “swim activity / seizure behavior, third trial” value in the data set on scn1Lab mutant zebrafish [2] was “reduced swim activity”. Further, the “seizure-induced swim activity and mean velocity, re-test” value in the data set with scn1Lab mutant zebrafish [2] (zebrafish, in vivo) was “effective in reducing seizure-induced swim activity and mean velocity”.

Consider `C=CC(N)CCC(=O)O` (centres unmarked) [vigabatrin], for which, in the data set with scn1Lab mutant zebrafish [3] (zebrafish, in vivo), the “Epileptiform event frequency” value is “increased burst frequency”; the “fish” value was 6 of 7.
